Among the data in patent publication US12655142B2 (Merck Patent GmbH, priority 2019, dated 2026) are IC50 and solubility values, retold here.

The target of data set [1] is T1, GIST430/654 cell line expressing mutated constitutively active cKIT receptor tyrosine kinase (Δ560-576 deletion and V654A point mutation) (Homo sapiens, UniProt P10721, DEL560-576/V654A).
T1 construct: endogenous in cells; host or cells: GIST430/654 cells
The experiment in a line: Cellular cKIT autophosphorylation (phospho-Y307-cKIT, Luminex bead assay) in GIST430/654 cells. As to conditions: compounds 45 min, read-out: GIST 430/654 IC50. In kind it is cell-based. The method, boiled down:
(§1)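 GIST430 (Δ560-576) and imatinib-resistant GIST430/654 (plus V654A; grown with 100 nM imatinib) cells were plated in IMDM/15% FCS and treated next day with serially diluted compound for 45 min. Lysates were captured on anti-total-cKIT Luminex beads overnight at 4 °C and probed for phospho-Y307. IC50 was taken from percent of 0.3% DMSO control.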

Data set [2] deals with T2, GIST430 cell line expressing constitutive active cKIT receptor tyrosine kinase (Δ560-576 deletion) (Homo sapiens, UniProt P10721, DEL560-576).
T2 construct: endogenous in cells; host or cells: GIST430 cells
The experiment in a line: Cellular cKIT autophosphorylation (phospho-Y307-cKIT, Luminex bead assay) in GIST430 cells. In kind it is cell-based. The settings on record: cKIT autophosphorylation, GIST430 cells, compounds 45 min; read-out: GIST 430 IC50. The method, boiled down:
as §1

For another data set, the target named is T3, c-Kit(V654A) (Homo sapiens, UniProt P10721, V654A).
T3 construct: recombinant human c-Kit, amino acids 544-end containing the V654A mutation; GST (N)
The experiment in a line: c-Kit(V654A) assay (33P-ATP filter binding kinase assay). In kind it is biochemical. As to conditions: recombinant human c-Kit aa 544-end V654A, ATP 200 μM. The method, boiled down: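 Radiometric filter-binding read-out: substrate 33P incorporation counted by scintillation after P30 filtermat washes in 75 mM phosphoric acid and methanol. Enzyme: N-GST recombinant human c-Kit aa 544-end carrying V654A.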

The conditions of data set [3]: pH 7.4.
Description: In a 96 well filtration plate, 2 μL of a 10 mM solution of the test compound in DMSO is added to 98 μL of 20 mM Sorensen phosphate buffer with pH 7.4. The mixture is incubated at room temperature for 120 min while agitating at 250 rpm followed by centrifugation at 2500 rpm for 3 min. After dilution by a factor of 2, the concentration of the test compound is determined using HPLC/UPLC with detection at a suitable wavelength and by comparison to a corresponding compound standard.

T2 sequence (P10721 with tags, fused parts or gaps DEL560-576): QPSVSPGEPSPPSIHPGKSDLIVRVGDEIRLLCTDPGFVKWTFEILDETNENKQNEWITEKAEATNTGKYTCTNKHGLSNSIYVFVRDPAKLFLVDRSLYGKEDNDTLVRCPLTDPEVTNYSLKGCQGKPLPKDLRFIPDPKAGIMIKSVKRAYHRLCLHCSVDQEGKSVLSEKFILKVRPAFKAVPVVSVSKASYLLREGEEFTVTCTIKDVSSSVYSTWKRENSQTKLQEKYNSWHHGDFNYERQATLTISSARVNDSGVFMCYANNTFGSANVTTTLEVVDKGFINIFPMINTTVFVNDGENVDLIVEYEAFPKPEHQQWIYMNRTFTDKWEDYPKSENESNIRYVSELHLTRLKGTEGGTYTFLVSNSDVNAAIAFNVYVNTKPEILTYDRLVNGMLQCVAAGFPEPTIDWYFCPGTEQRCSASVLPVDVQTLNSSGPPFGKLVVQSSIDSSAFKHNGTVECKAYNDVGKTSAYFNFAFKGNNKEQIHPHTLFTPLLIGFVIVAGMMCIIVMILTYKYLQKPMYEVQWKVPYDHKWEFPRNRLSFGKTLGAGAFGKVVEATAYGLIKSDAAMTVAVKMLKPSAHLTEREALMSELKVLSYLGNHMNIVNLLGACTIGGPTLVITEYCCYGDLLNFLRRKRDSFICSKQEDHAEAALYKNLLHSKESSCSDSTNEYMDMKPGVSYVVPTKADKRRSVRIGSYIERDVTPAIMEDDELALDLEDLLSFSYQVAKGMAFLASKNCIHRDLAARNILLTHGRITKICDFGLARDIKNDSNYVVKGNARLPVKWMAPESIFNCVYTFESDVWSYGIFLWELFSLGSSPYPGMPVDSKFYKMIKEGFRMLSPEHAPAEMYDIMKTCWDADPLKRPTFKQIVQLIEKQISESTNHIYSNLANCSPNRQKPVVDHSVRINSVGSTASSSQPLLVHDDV
T3 sequence (P10721 544-976 V654A): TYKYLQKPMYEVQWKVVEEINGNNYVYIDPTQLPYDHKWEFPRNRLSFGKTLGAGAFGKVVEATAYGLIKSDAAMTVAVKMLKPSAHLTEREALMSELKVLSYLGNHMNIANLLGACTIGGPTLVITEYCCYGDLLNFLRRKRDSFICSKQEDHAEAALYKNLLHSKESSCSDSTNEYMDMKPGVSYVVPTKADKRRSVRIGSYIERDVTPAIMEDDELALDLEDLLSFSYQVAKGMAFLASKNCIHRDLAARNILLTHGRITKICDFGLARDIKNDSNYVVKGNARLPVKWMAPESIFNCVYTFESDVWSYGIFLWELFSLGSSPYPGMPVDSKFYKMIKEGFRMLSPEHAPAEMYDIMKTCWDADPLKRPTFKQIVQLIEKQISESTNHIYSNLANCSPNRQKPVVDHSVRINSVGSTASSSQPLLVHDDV
T1 sequence (P10721 with tags, fused parts or gaps DEL560-576/V654A): as the sequence (P10721 with tags, fused parts or gaps DEL560-576) above, with V612A counted along it

As to `Cn1cc(-c2ccc(CNc3cc(-c4cnc5cc(OCCCN6CCC6)ccn45)ncn3)cc2)cn1` [A102], the IC50 in data set [1] was found to be 46 nM; in data set [2], 3 nM; at c-Kit(V654A) it was 9.8 nM. For the same compound, the solubility entry in data set [3] is on record as “at least 25 μM”.
